Source: US20260315446A1, “ANTIFUNGAL COMPOUNDS AND USES THEREOF” (priority 2023, published 2026)
In brackets after ≈: the same amount, converted by molar mass. Where two headings read alike, the source gives them in different places.

Columns and labels:
[1] = system: C. neoformans growth versus IL-2 in murine T cells; experiment: Therapeutic index score (immunosuppressive fold change to antifungal fold change relative to FK506); set-up: species or system Cryptococcus neoformans; mouse; conditions: Example 3; C. neoformans H99, FK506 = 1.0
Description: To assess the therapeutic potential for these compounds, it was important to develop an approach to score and rank them based on antifungal and immunosuppressive activities. The therapeutic index score (TIscore) is a ratio of the immunosuppressive fold change to the antifungal fold change, with all values relative to the baseline FK506 activity (FIG. 6B). A TIscore of >1.0 indicates an increase in fungal specificity because the fold change of the immunosuppressive reduction is greater than the antifungal activity reduction. As an example, JH-FK-05 is 20-fold reduced for antifungal activity but about 180-fold reduced for immunosuppression. Therefore, the TIscore of JH-FK-05 is 9.1 (TIscore=182/20). The top two analogs were JH-FK-02 (TIscore=9.7) and JH-FK-05 (TIscore=9.1). Due to the similar TIscore, JH-FK-05 was prioritized to advance to animal trials on the merit of more pronounced antifungal activity compared to JH-FK-02.
Based on the in vitro fungal and mammalian calcineurin inhibition data, the panel of FK520 analogs was assessed and ranked. Therapeutic index (TI) scores were used to quantify the effects of structural modification on the compounds (Table 8). Therapeutic index scores were calculated for each analog as the ratio of relative change in immunosuppressive and antifungal activities compared to FK506 as previously utilized (see, I-Toy M J, et at. 2022. mBio 13:e0104922). This ratio of therapeutic benefit and host toxicity, or fungal and mammalian calcineurin inhibition, allowed us to quantify and rank these analogs. […] This is the greatest TI found within the library and allowed us to identify JH-FK-08 as a lead candidate for an in vivo study. Tolerability of JH-FK-08 was assessed by monitoring animal responses to drug dosing across 14 days, including changes in weight, fur condition, and behavior. A maximum dose of 40 mg/kg was tested in once a day dosing, and due to solubility limitations, the tolerability of JH-FK-08 at 60 and 80 mg/kg total daily doses was assessed by dosing two equal doses per day (FIG. 14). […] It should be noted that analogs JH-FK-12 and JH-FK-23 are also promising candidates with respective Tis of 24.7 and 24.5.

Cryptococcus neoformans = experiment: MIC assay (Example 3); assay type: cell-based; conditions: Cryptococcus neoformans
Method: (§1) In vitro antifungal activity was assessed for all fungal strains in RPMI 1640 (Sigma-Aldrich R1383). MICs were measured using Clinical and Laboratory Standards Institute (CLSI) M38-A2 and M27-A3 standard in vitro antifungal susceptibility protocols. C. neoformans and A. fumigatus testing was performed at 37° C. MECs for A. fumigatus were recorded after 48 h of growth. C. albicans testing was performed at 30° C. with a uniform concentration of 2 μg/mL of fluconazole to sensitize the cells to calcineurin inhibition.
(§2) C. neoformans clinical isolate H99 and congenic-derived strain KN99α were used (see, Nielsen K, et al., 2003. Infect Immun 71:4831-4841). KN99α-derived frr1Δ deletion mutants with nourseothricin resistance markers as part of the Madhani deletion collection (NIH funding R01AI100272) were used. C. deneoformans strains used include JEC21 and derived C21F2 (CNB1-1) and C21F3 (frr1-3) strains (see, Odom A, et al., 1997. EMBO J 16:2576-2589; Moore T D, Edman J C. 1993. Mol Cell Biol 13:1962-1970; Fox D S, et al., 2001. Mol Microbiol 39:835-849). C. albicans strain SC5314 is the wild-type strain from which mutants YAG171 (rbp1/rbp1) and YAG237 (CNB1-1/CNB1) were derived (see, Cruz M C, et al., 2001. Antimicrob Agents Chemother 45:3162-3170). A. fumigatus strain akuB^Ku80 and a derived FKBP12 mutant fkbp12A were used during antifungal screening (see, Falloon K, et al., 2015. PLoS One 10:e0137869).

[2] = system: IL-2 expression in primary mouse CD4+ T cells (mammalian calcineurin); experiment: In vitro immunosuppressive activity, IL-2 expression (Example 3); assay type: cell-based; conditions: 72 h
Method: Modifications at the C-22 position reduce inhibition of mammalian calcineurin signaling Mammalian calcineurin inhibition was then assessed and found to be reduced for these FK520 analogs. The inhibition of mammalian calcineurin was assessed by measuring the reduction of IL-2 expression from primary mouse CD4^+ T cells cultured in the presence of FK506, FK520, or an analog. Calcineurin activity is required for T cell activation and cytokine production, and IL-2 production serves as an effective measure of mammalian calcineurin activity. After culturing mouse CD4′ T cells for 72 h, IL-2 expression was analyzed by flow cytometry to evaluate the immunosuppressive activity of the analogs. […] However, compound concentrations that permit high IL-2 expression are less likely to result in cell death.
Spleen and lymph nodes from C57BL/6 mice were collected and homogenized through a 40-μm filter. Pan-CD4^+ T cells were enriched using the MagniSort Mouse CD4 T Cell Enrichment Kit (Invitrogen). Thereafter, CD4^+CD25^−CD62L^hiCD44^lo naïve CD4^+ T cells were FACS-sorted using a MoFlo Astrios cell sorter (Beckman Coulter). Naïve CD4^+ T cells were cultured in Iscove's Modified Dulbecco's Medium supplemented with 10% fetal bovine serum (FBS), penicillin (10 U/mL), streptomycin (10 μg/mL), glutamine (2 mM), gentamicin (50 μg/mL), and β-mercaptoethanol (55 μM). Cells were cultured for 72 h on anti-hamster IgG-coated plates with hamster anti-CD3s antibodies, hamster anti-CD28 antibodies, neutralizing anti-IL-4 antibodies, recombinant IL-12 (10 ng/mL), and recombinant IL-2 (50 U/mL). During this culture, cells were incubated with serially diluted drugs suspended in DMSO.

Candida albicans = experiment: MIC assay (Example 3); assay type: cell-based; conditions: Candida albicans
Method: as §1, §2

Aspergillus fumigatus = experiment: MEC assay (Example 3); conditions: strain akuB^Ku80
[3] = SC5314, MIC80, 30° C. with 2 μg/mL fluconazole, read-out: MIC against Candida albicans (SC5314)
[4] = MIC90, 37° C., read-out: MIC against Cryptococcus neoformans (H99)
[5] = SC5314, read-out: MIC against Candida albicans (SC5314)
[6] = read-out: MIC against Cryptococcus neoformans (H99)

SMILES: CCN/N=C1/C[C@H](O)[C@@H](C)[C@@H](/C(C)=C/C2CC[C@@H](O)[C@H](OC)C2)OC(=O)[C@@H]2CCCCN2C(=O)C(=O)[C@]2(O)O[C@H]([C@@H](OC)C[C@@H](C)C/C(C)=C/[C@H]1CC)[C@@H](OC)C[C@H]2C (stereo partly drawn) [JH-FK-16]
- Therapeutic index [1]: 8.2
- MIC (Cryptococcus neoformans; Table 8, read-out: H99 MIC90): 0.4 µg/mL (≈ 0.48 µM)
- IC50 [2]: 5.9 nM

SMILES: CC[C@@H]1/C=C(\C)C[C@H](C)C[C@H](OC)[C@H]2O[C@@](O)(C(=O)C(=O)N3CCCC[C@H]3C(=O)O[C@H](/C(C)=C/C3CC[C@@H](O)[C@H](OC)C3)[C@H](C)[C@@H](O)C/C1=N/NS(C)(=O)=O)[C@H](C)C[C@@H]2OC (stereo partly drawn) [JH-FK-23]
- Therapeutic index [1]: 24.5
- MIC (Candida albicans; [3]): 1.6 µg/mL (≈ 1.81 µM)
- MIC (Cryptococcus neoformans; [4]): 1.6 µg/mL (≈ 1.81 µM)
- MIC (Cryptococcus neoformans; Table 8, read-out: H99 MIC90): 1.6 µg/mL (≈ 1.81 µM)
- IC50 [2]: 70.5 nM
- MEC against Aspergillus fumigatus (akuB^Ku80) (Aspergillus fumigatus): 5 µg/mL

SMILES: CC[C@@H]1/C=C(\C)C[C@H](C)C[C@H](OC)[C@H]2O[C@@](O)(C(=O)C(=O)N3CCCC[C@H]3C(=O)O[C@H](/C(C)=C/[C@@H]3CC[C@@H](O)[C@H](OC)C3)[C@H](C)[C@@H](O)CC1=NNC(=O)NN)[C@H](C)C[C@@H]2OC [JH-FK-21]
- MIC (Candida albicans; [5]): 0.8 µg/mL (≈ 0.926 µM)
- MIC (Cryptococcus neoformans; [6]): 1.6 µg/mL (≈ 1.85 µM)
- MEC against Aspergillus fumigatus (akuB^Ku80) (Aspergillus fumigatus): 2.5 µg/mL

SMILES: CC[C@@H]1/C=C(\C)C[C@H](C)C[C@H](OC)[C@H]2O[C@@](O)(C(=O)C(=O)N3CCCC[C@H]3C(=O)O[C@H](/C(C)=C/C3CC[C@@H](O)[C@H](OC)C3)[C@H](C)[C@@H](O)C/C1=N/NC(=O)c1ccncc1)[C@H](C)C[C@@H]2OC (stereo partly drawn) [JH-FK-09]
- Therapeutic index [1]: 7.8
- MIC (Candida albicans; [3]): 0.8 µg/mL (≈ 0.878 µM)
- MIC (Cryptococcus neoformans; [4]): 0.8 µg/mL (≈ 0.878 µM)
- MIC (Cryptococcus neoformans; Table 8, read-out: H99 MIC90): 0.8 µg/mL (≈ 0.878 µM)
- IC50 [2]: 11.2 nM
- MEC against Aspergillus fumigatus (akuB^Ku80) (Aspergillus fumigatus): 1.3 µg/mL

SMILES: CC[C@@H]1/C=C(\C)C[C@H](C)C[C@H](OC)[C@H]2O[C@@](O)(C(=O)C(=O)N3CCCC[C@H]3C(=O)O[C@H](/C(C)=C/[C@@H]3CC[C@@H](O)[C@H](OC)C3)[C@H](C)[C@@H](O)CC1=NNS(=O)(=O)c1ccc(C)cc1)[C@H](C)C[C@@H]2OC [JH-FK-13]
- MIC (Candida albicans; [5]): > 50 µg/mL
- MIC (Cryptococcus neoformans; [6]): > 50 µg/mL
- MEC against Aspergillus fumigatus (akuB^Ku80) (Aspergillus fumigatus): >10 µg/mL

SMILES: CC[C@@H]1/C=C(\C)C[C@H](C)C[C@H](OC)[C@H]2O[C@@](O)(C(=O)C(=O)N3CCCC[C@H]3C(=O)O[C@H](/C(C)=C/C3CC[C@@H](O)[C@H](OC)C3)[C@H](C)[C@@H](O)C/C1=N/NC(N)=O)[C@H](C)C[C@@H]2OC (stereo partly drawn) [JH-FK-12]
- Therapeutic index [1]: 24.7
- MIC (Candida albicans; [3]): 0.8 µg/mL (≈ 0.942 µM)
- MIC (Cryptococcus neoformans; [4]): 0.8 µg/mL (≈ 0.942 µM)
- MIC (Cryptococcus neoformans; Table 8, read-out: H99 MIC90): 0.8 µg/mL (≈ 0.942 µM)
- IC50 [2]: 35.6 nM
- MEC against Aspergillus fumigatus (akuB^Ku80) (Aspergillus fumigatus): 2.5 µg/mL

SMILES: CC[C@@H]1/C=C(\C)C[C@H](C)C[C@H](OC)[C@H]2O[C@@](O)(C(=O)C(=O)N3CCCC[C@H]3C(=O)O[C@H](/C(C)=C/C3CC[C@@H](O)[C@H](OC)C3)[C@H](C)[C@@H](O)C/C1=N/NC(=O)NN)[C@H](C)C[C@@H]2OC (stereo partly drawn) [JH-FK-21]
- Therapeutic index [1]: 18.9
- MIC (Cryptococcus neoformans; Table 8, read-out: H99 MIC90): 1.6 µg/mL (≈ 1.85 µM)
- IC50 [2]: 54.5 nM

SMILES: CC[C@@H]1/C=C(\C)C[C@H](C)C[C@H](OC)[C@H]2O[C@@](O)(C(=O)C(=O)N3CCCC[C@H]3C(=O)O[C@H](/C(C)=C/C3CC[C@@H](O)[C@H](OC)C3)[C@H](C)[C@@H](O)C/C1=N/NC(=O)c1ccc(N)cc1)[C@H](C)C[C@@H]2OC (stereo partly drawn) [JH-FK-20]
- Therapeutic index [1]: 12.3
- MIC (Candida albicans; [3]): 0.8 µg/mL (≈ 0.865 µM)
- MIC (Cryptococcus neoformans; [4]): 0.8 µg/mL (≈ 0.865 µM)
- MIC (Cryptococcus neoformans; Table 8, read-out: H99 MIC90): 0.8 µg/mL (≈ 0.865 µM)
- IC50 [2]: 17.8 nM
- MEC against Aspergillus fumigatus (akuB^Ku80) (Aspergillus fumigatus): 0.6 µg/mL

SMILES: CC[C@@H]1/C=C(\C)C[C@H](C)C[C@H](OC)[C@H]2O[C@@](O)(C(=O)C(=O)N3CCCC[C@H]3C(=O)O[C@H](/C(C)=C/C3CC[C@@H](O)[C@H](OC)C3)[C@H](C)[C@@H](O)C/C1=N/NC(=O)CO)[C@H](C)C[C@@H]2OC (stereo partly drawn) [JH-FK-22]
- Therapeutic index [1]: 15.6
- MIC (Cryptococcus neoformans; Table 8, read-out: H99 MIC90): 1.6 µg/mL (≈ 1.85 µM)
- IC50 [2]: 45 nM

SMILES: CCNN=C1C[C@H](O)[C@@H](C)[C@@H](/C(C)=C/[C@@H]2CC[C@@H](O)[C@H](OC)C2)OC(=O)[C@@H]2CCCCN2C(=O)C(=O)[C@]2(O)O[C@H]([C@@H](OC)C[C@@H](C)C/C(C)=C/[C@H]1CC)[C@@H](OC)C[C@H]2C [JH-FK-16]
- MIC (Candida albicans; [5]): 0.4 µg/mL (≈ 0.48 µM)
- MIC (Cryptococcus neoformans; [6]): 0.4 µg/mL (≈ 0.48 µM)
- MEC against Aspergillus fumigatus (akuB^Ku80) (Aspergillus fumigatus): 1.3 µg/mL

SMILES: CC[C@@H]1/C=C(\C)C[C@H](C)C[C@H](OC)[C@H]2O[C@@](O)(C(=O)C(=O)N3CCCC[C@H]3C(=O)O[C@H](/C(C)=C/C3CC[C@@H](O)[C@H](OC)C3)[C@H](C)[C@@H](O)C/C1=N/NC(=O)c1cccc(C(=O)NN)c1)[C@H](C)C[C@@H]2OC (stereo partly drawn) [JH-FK-14]
- Therapeutic index [1]: 4.9
- MIC (Candida albicans; [3]): 0.8 µg/mL (≈ 0.826 µM)
- MIC (Cryptococcus neoformans; [4]): 1.6 µg/mL (≈ 1.65 µM)
- MIC (Cryptococcus neoformans; Table 8, read-out: H99 MIC90): 1.6 µg/mL (≈ 1.65 µM)
- IC50 [2]: 14 nM
- MEC against Aspergillus fumigatus (akuB^Ku80) (Aspergillus fumigatus): 0.6 µg/mL

SMILES: CC[C@@H]1/C=C(\C)C[C@H](C)C[C@H](OC)[C@H]2O[C@@](O)(C(=O)C(=O)N3CCCC[C@H]3C(=O)O[C@H](/C(C)=C/[C@@H]3CC[C@@H](O)[C@H](OC)C3)[C@H](C)[C@@H](O)CC1=NNC(=O)CO)[C@H](C)C[C@@H]2OC [JH-FK-22]
- MIC (Candida albicans; [5]): 1.6 µg/mL (≈ 1.85 µM)
- MIC (Cryptococcus neoformans; [6]): 1.6 µg/mL (≈ 1.85 µM)
- MEC against Aspergillus fumigatus (akuB^Ku80) (Aspergillus fumigatus): 2.5 µg/mL
